In patent publication US6288125A, “Treatment of hiatial hernia” (Knoll Pharmaceuticals Company, priority 2000, dated 2001):

Test system: reuptake of all three monoamines
Test: monoamine reuptake inhibition profile (in words, with reference to Table 1)
Assay type: biochemical, rat
Details: sibutramine through its pharmacologically active metabolites 1 and 2

CC(C)CC(N(C)C)C1(c2ccc(Cl)cc2)CCC1 (stereo not shown) [sibutramine, N,N-dimethyl-1-[1-(4-chlorophenyl)cyclobutyl]-3-methylbutylamine]
monoamine reuptake inhibition / selectivity in words: inhibits the reuptake of all three monoamines
